{"source": "patent US20250101001A1", "about": "(priority 2021, published 2025)", "key": {"[1]": {"assay_type": "in vivo", "details": "mice", "description": "Head twitch response (HTR) experiments. C57BL/6J Mice (9-10 weeks old) are housed following an IACUC approved protocol. The mice are habituated in the test cage for at least 30 min, injected intraperitoneally with compound (injection volume 5 ml/kg), returned to the empty test cage, and filmed for 20 minutes. Each video is scored for the number of head-twitches by a trained observer blinded to treatment condition."}, "[2]": {"test_system": "5HT2A sensor", "assay_type": "cell-based"}, "[3]": {"test_system": "5HT2A sensor", "assay_type": "cell-based", "remark": "listed apart in the source"}}, "data": [{"compound": "5-MeO-DMT [Compound 5-MeO-DMT]", "values": [{"measurement": "head-twitch response (HTR)", "setting": "[1]", "value": "produces a robust, dose-dependent head-twitch response"}, {"measurement": "activation of the 5HT2A sensor assay in agonist mode", "setting": "[2]", "value": "activate the 5HT2A sensor assay in agonist mode"}]}, {"compound": "6-F-DET [Compound 6-F-DET]", "values": [{"measurement": "activation of the 5HT2A sensor assay in agonist mode", "setting": "[2]", "value": "do not activate the 5HT2A sensor assay in agonist mode"}, {"measurement": "competition with 5-HT in the 5HT2A sensor assay in antagonist mode", "setting": "[3]", "value": "can compete with 5HT binding to 5HT2A"}]}, {"compound": "6-MeO-DMT [Compound 6-MeO-DMT]", "values": [{"measurement": "head-twitch response (HTR)", "setting": "[1]", "value": "does not produce a HTR"}, {"measurement": "activation of the 5HT2A sensor assay in agonist mode", "setting": "[2]", "value": "do not activate the 5HT2A sensor assay in agonist mode"}, {"measurement": "competition with 5-HT in the 5HT2A sensor assay in antagonist mode", "setting": "[3]", "value": "compete off 5-HT"}]}, {"compound": "CN(C)CCc1c[nH]c2ccccc12", "note": "[DMT, N,N-dimethyltryptamine]", "values": [{"measurement": "activation of the 5HT2A sensor assay in agonist mode", "setting": "[2]", "value": "activate the 5HT2A sensor assay in agonist mode"}]}, {"compound": "O=C(c1ccc(F)cc1)C1CCN(CCn2c(=O)[nH]c3ccccc3c2=O)CC1", "note": "[Ketanserin]", "values": [{"measurement": "activation of the 5HT2A sensor assay in agonist mode", "setting": "[2]", "value": "do not activate the 5HT2A sensor assay in agonist mode"}, {"measurement": "competition with 5-HT in the 5HT2A sensor assay in antagonist mode", "setting": "[3]", "value": "can compete with 5HT binding to 5HT2A"}]}, {"compound": "BOL148", "values": [{"measurement": "activation of the 5HT2A sensor assay in agonist mode", "setting": "[2]", "value": "do not activate the 5HT2A sensor assay in agonist mode"}, {"measurement": "competition with 5-HT in the 5HT2A sensor assay in antagonist mode", "setting": "[3]", "value": "can compete with 5HT binding to 5HT2A"}]}, {"compound": "L-MDMA", "values": [{"measurement": "activation of the 5HT2A sensor assay in agonist mode", "setting": "[2]", "value": "do not activate the 5HT2A sensor assay in agonist mode"}]}, {"compound": "R-MDMA", "values": [{"measurement": "activation of the 5HT2A sensor assay in agonist mode", "setting": "[2]", "value": "do not activate the 5HT2A sensor assay in agonist mode"}]}]}
